IC50 data for 27 compounds are collected here from patent US5622947A, “Benzoheterocyclic compounds and vasopressin antagonist and oxytocin antagonist compositions containing a benzoheterocyclic compound” (Otsuka Pharmaceutical Co., Ltd., priority 1992, dated 1997).

Structures can show the parent of a compound that is named as a salt.

The experiment addresses T1, Oxytocin receptor (uterin muscle membrane preparation) (Rattus norvegicus, UniProt P70536).
T1 construct: was homogenized, which was used as a membrane; from tissue; host or cells: uterine muscle membranes from diethylstilbestrol-treated animals
T1 sequence (P70536 1-388): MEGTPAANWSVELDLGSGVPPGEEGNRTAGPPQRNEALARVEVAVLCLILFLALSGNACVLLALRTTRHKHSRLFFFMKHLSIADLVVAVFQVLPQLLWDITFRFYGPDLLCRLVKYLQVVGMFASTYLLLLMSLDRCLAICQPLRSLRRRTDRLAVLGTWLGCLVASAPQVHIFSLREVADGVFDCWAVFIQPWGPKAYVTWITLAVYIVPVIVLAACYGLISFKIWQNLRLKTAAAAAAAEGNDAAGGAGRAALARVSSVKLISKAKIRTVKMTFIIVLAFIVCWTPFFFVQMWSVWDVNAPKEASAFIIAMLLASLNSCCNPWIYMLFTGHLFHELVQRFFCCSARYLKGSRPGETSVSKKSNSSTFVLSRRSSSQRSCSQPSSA
The experiment in a line: Oxytocin receptor binding assay. To be noted: [3H]-oxytocin 10^-9 M, 25°, one hour, pH 8.0, uterin muscle membrane, DES-treated. On the procedure: Test-5 Oxytocin receptor binding assay
In accordance with Chan's method [by W. Y. Chan, et al.: Endocrinology, 126, 2095-2101 (1990)], the uterin muscle benn injected subcutaneously with diethylstilbe-sterol (DES) the day before and was homogenized, which was used as a membrane prepara tion. The membrane preparation (0.2 mg), [^3 H]-oxytocin (100,000 dpm, 10^-9 M), a test compound (10^-9 to 10^-5 M) were incubated at 25°. for one hour in 100 mM Tris-HCl buffer (pH=8.0, 250 μl) containing 5 mM MgCl2, 1 mM EDTA and 0.1% BSA. The mixture was filtered through a glass filter (GF/F) so as to separate the membrane preparation combining with [^3 H]-oxytocin, then, was washed twicw with the buffer (5 ml). The glass filter was put into a vial and mixed with Aquasole (a liquid scintillation cocktail). The amount of [^3 H]-oxytocin combining w ith the membrane was measured by a liquid scintillation counter. The rate of the inhibitory effect of the test compound was calculated according to the equation as follows: […]
C1 : the amount of [^3 H]-oxytocin combining with the membrane in the presence of a test compound (in known amount),
C0 : the amount of [^3 H]-oxytocin combinig with the membrane in the absence of a test compound,
B: the amount of [^3 H]-oxytocin combining with the membrane in the presence of the excess amount of oxytocin (5×10^-6 M).
The results are expressed as IC50 values, which is the concentration of the test compound required to achieve the inhibitory effect in the rate of 50%.
Regarding `Cc1cc(NC(=O)c2ccccc2Cl)ccc1C(=O)N1CCCC(CC(N)=O)c2cc(Cl)ccc21` (stereo not drawn) [Example 123], the IC50 came to 2200 nM.
The value for `COc1cc(NC(=O)c2cccc3c2OCCC3)ccc1C(=O)N1CCCC(CC(=O)N2CCN(C)CC2)c2cc(Cl)ccc21` (stereo not drawn) [Example 183] was 4410 nM.
Take `COc1cc(C(=O)N2CCCC(CC(=O)N3CCCN(C)CC3)c3cc(Cl)ccc32)ccc1NC(=O)c1ccccc1Br` (stereo not drawn) [Example 185]: the IC50 was 162 nM.
With `Cc1ccccc1C(=O)Nc1ccc(C(=O)N2CCCC(CC(N)=O)c3cc(Cl)ccc32)cc1` (stereo not drawn) [Example 112, 5-Carbamoylmethyl-7-chloro-1-[4-(2-methylbenzoylamino)benzoyl]-2,3,4,5-tetrahydro-1H-benzoazepine] the figure was 280 nM; with `COc1cc(C(=O)N2CCCC(CC(=O)N3CCN(C)CC3)c3cc(Cl)ccc32)ccc1NC(=O)c1ccccc1Cl` (stereo not drawn) [Example 117, 5-(4-Methyl-1-piperazinyl)carbonylmethyl-7-chloro-1-[3-methoxy-4-(2-chlorobenzoylamino)benzoyl]-2,3,4,5-tetrahydro-1H-benzoazepine.cndot.hydrochlorid], 320 nM; with `Cc1ccccc1C(=O)Nc1ccc(C(=O)N2CCCC(CC(=O)N3CCC(N(C)C)CC3)c3cc(Cl)ccc32)c(C)c1` (stereo not drawn) [Example 118, 5-(4-Dimethylamino-1-piperidinyl)carbonylmethyl-7-chloro-1-[2-methyl-4-(2-methylbenzoylamino)benzoyl]-2,3,4,5-tetrahydro-1H-benzoazepine.cndot.hydrochloride], 3200 nM.
The value for `COc1cc(C(=O)N2CCCC(CC(=O)N(C)C)c3cc(Cl)ccc32)ccc1NC(=O)c1ccccc1C` (stereo not drawn) [Example 32, 5-Dimethylaminocarbonylmethyl-7-chloro-1-[3-methoxy-4-(2-methylbenzoylamino)benzoyl]-2,3,4,5-tetrahydro-1H-benzoazepine] was 610 nM; that for `COc1cc(NC(=O)c2ccccc2C)ccc1C(=O)N1CCCC(CC(=O)N2CCC(N(C)C)CC2)c2cc(F)ccc21` (stereo not drawn) [Example 110] was 220 nM; that for `COc1cc(NC(=O)c2ccccc2Cl)ccc1C(=O)N1CCCC(OCCN2CCCN(C)CC2)c2cc(Cl)ccc21` (stereo not drawn) [Example 180, 5-[2-(4-Methyl-1-homopiperazinyl)ethoxy]-7-chloro-1-[2-methoxy-4-(2-chlorobenzoylamino)benzoyl]-2,3,4,5-tetrahydro-1H-benzoazepine] was 284 nM.
In the case of `CNC(=O)CC1CCCN(C(=O)c2ccc(NC(=O)c3ccccc3Cl)cc2C)c2ccc(Cl)cc21` (stereo not drawn) [Example 122, 5-Methylaminocarbonylmethyl-7-chloro-1-[2-methyl-4-(2-chlorobenzoylamino)benzoyl]-2,3,4,5-tetrahydro-1H-benzoazepine], the IC50 stood at 2200 nM.
The value for `COc1cc(NC(=O)c2ccccc2Cl)ccc1C(=O)N1CCC=C(CCN2CCN(C(C)=O)CC2)c2cc(Cl)ccc21` [Example 179, 5-[2-(4-Acetyl-1-piperazinyl)ethyl]-7-chloro-1-[2-methoxy-4-(2-chlorobenzoylamino)benzoyl]-2,3,-dihydro-1H-benzoazepine] was 2600 nM; that for `Cc1ccccc1C(=O)Nc1ccc(C(=O)N2CCCC(CC(=O)N3CCN(C)CC3)c3cc(Cl)ccc32)c(Cl)c1` (stereo not drawn) [Example 108] was 1900 nM; that for `Cc1ccccc1C(=O)Nc1ccc(C(=O)N2CCCC(CC(=O)N(C)C)c3cc(Cl)ccc32)cc1` (stereo not drawn) [Example 111, 5-Dimethylaminocarbonylmethyl-7-chloro-1-[4-(2-methylbenzoylamino)benzoyl]-2,3,4,5-tetrahydro-1H-benzoazepine] was 250 nM.
The compound `COc1cc(NC(=O)c2ccccc2Cl)ccc1C(=O)N1CCCC(OCCn2cncn2)c2cc(Cl)ccc21` (stereo not drawn) [Example 176, 5-[2-(1,2,4-Triazol-1-yl)ethoxy]-7-chloro-1-[2-methoxy-4-(2-chlorobenzoylamino)benzoyl]-2,3,4,5-tetrahydro-1H-benzoazepine] had an IC50 of 387 nM.
With `COc1cc(C(=O)N2CCCC(CC(=O)N3CCN(C)CC3)c3cc(Cl)ccc32)ccc1NC(=O)c1ccccc1Br` (stereo not drawn) [Example 119, 5-(4-Methyl-1-piperazinyl)carbonylmethyl-7-chloro-1-[3-methoxy-4-(2-bromobenzoylamino)benzoyl]-2,3,4,5-tetrahydro-1H-benzoazepine] the figure was 270 nM; with `COc1cc(NC(=O)Cc2ccccc2C)ccc1C(=O)N1CCCC(OC(=O)CN(C)C)c2cc(Cl)ccc21` (stereo not drawn) [Example 68, 5-(2-Dimethylaminoacetyloxy)-7-chloro-1-{2-methoxy-4-[2-(2-methylphenyl)acetylamino]benzoyl}-2,3,4,5-tetrahydro-1H-benzoazepine], 230 nM; with `Cc1ccccc1C(=O)Nc1ccc(C(=O)N2CCCC(CC(=O)N3CCNCC3)c3cc(Cl)ccc32)c(C)c1` (stereo not drawn) [Example 115], 2100 nM.
Compound `COc1cc(NC(=O)c2ccccc2Cl)ccc1C(=O)N1CCCC(OCCNC2CCCC2)c2cc(Cl)ccc21` (stereo not drawn) [Example 177, 5-(2-Cyclopentylaminoethoxy)-7-chloro-1-[2-methoxy-4-(2-chlorobenzoylamino)benzoyl]-2,3,4,5-tetrahydro-1H-benzoazepine] returned an IC50 of 258 nM.
The value for `O=C(Nc1ccc(C(=O)N2CCCC(OCCO)c3cc(Cl)ccc32)cc1)c1ccccc1Cl` (stereo not drawn) [Example 113] was 250 nM; that for `COc1cc(NC(=O)c2ccccc2Br)ccc1C(=O)N1CCCC(CC(=O)N2CCCC2)c2cc(F)ccc21` (stereo not drawn) [Example 114] was 170 nM.
With `COc1cc(NC(=O)c2ccccc2Br)ccc1C(=O)N1CCCC(CC(=O)N2CCC(NC(C)=O)CC2)c2cc(F)ccc21` (stereo not drawn) [Example 60, 5-[(4-Acetylamino-1-piperidinyl)carbonylmethyl]-7-fluoro-1-[2-methoxy-4-(2-bromobenzoylamino)benzoyl]-2,3,4,5-tetrahydro-1H-benzoazepine] the figure was 99 nM; with `Cc1ccccc1C(=O)Nc1ccc(C(=O)N2CCCC(CC(N)=O)c3cc(Cl)ccc32)c(Cl)c1` (stereo not drawn) [Example 173, 5-Carbamoylmethyl-7-chloro-1-[2-chloro-4-(2-methylbenzoylamino)benzoyl]-2,3,4,5-tetrahydro-1H-benzoazepine], 2190 nM.
The value for `CN1CCN(C(=O)CC2CCCN(C(=O)c3ccc(NC(=O)c4ccccc4Cl)cc3)c3ccc(Cl)cc32)CC1` (stereo not drawn) [Example 116] was 380 nM; that for `CCN(CC)CCN(CC)C(=O)CC1CCCN(C(=O)c2ccc(NC(=O)c3ccccc3Cl)cc2OC)c2ccc(Cl)cc21` (stereo not drawn) [Example 175, 5-[N-(2-Diethylaminoethyl)-N-ethylamino]-carbonylmethyl-7-chloro-1-[2-methoxy-4-(2-chlorobenzoylamino)benzoyl]-2,3,4,5-tetrahydro-1H-benzoazepine] was 13 nM.
In turn, `CN(C)C(=O)CC1CCCN(C(=O)c2ccc(NC(=O)c3ccccc3OCCCCNC(C)(C)C)cc2)c2ccc(Cl)cc21` (stereo not drawn) [Example 182] yielded an IC50 of 4710 nM.
The value for `COc1cc(NC(=O)c2ccccc2C)ccc1C(=O)N1CCCC(OC(=O)CN2CCOCC2)c2cc(Cl)ccc21` (stereo not drawn) [Example 17, 5-(2-Morpholinoacetyloxy)-7-chloro-1-[2-methoxy-4-(2-methylbenzoylamino)benzoyl]-2,3,4,5-tetrahydro-1H-benzoazepine] was 46 nM.
With `COc1cc(C(=O)N2CCCC(OC(=O)[C@@H](N)CCCCN)c3cc(Cl)ccc32)ccc1NC(=O)c1ccccc1C` (stereo partly drawn) [Example 107] the figure was 1300 nM.

As a reminder, the IC50 is the point on the concentration scale where inhibition reaches its midpoint.
